Data: US20240343733A1, “COMPOUNDS FOR TARGETING DEGRADATION OF IRAK4 PROTEINS” (BIOGEN MA INC., priority 2021, published 2024)

The compounds below were run against T1, IRAK4 (Homo sapiens, UniProt Q9NWZ3) (assay: IRAK4 Degradation Assay, HiBiT Method). Conditions: 293T cells expressing HiBiT-tagged IRAK4, 6 hours.
T1 construct: 293Tcells expressing HiBiT-tagged IRAK4 were then added into 384-well plates
T1 sequence (Q9NWZ3 1-460): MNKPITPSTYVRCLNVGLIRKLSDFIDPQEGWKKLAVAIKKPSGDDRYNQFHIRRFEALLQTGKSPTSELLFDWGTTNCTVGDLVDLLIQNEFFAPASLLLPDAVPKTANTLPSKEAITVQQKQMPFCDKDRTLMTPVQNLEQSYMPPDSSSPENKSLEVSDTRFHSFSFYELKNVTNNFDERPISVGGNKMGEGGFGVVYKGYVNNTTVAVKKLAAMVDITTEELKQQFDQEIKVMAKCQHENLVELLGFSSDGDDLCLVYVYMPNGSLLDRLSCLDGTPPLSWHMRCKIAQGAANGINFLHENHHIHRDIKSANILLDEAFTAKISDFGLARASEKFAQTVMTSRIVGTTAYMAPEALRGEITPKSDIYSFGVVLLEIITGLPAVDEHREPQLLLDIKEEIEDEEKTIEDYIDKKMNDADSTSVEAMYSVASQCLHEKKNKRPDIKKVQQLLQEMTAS
Assay type: cell-based
Method in brief: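 Luminescent read-out with Nano-Glo HiBiT lytic reagent after 6 h compound exposure at 37 °C. Cells were HiBiT-IRAK4 knock-in 293T (C-terminal tag), 10,000 per well. Compounds ran as 11-point half-log dilutions from […] highest dose, duplicate wells; DMSO served as negative control.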

**Q.** For `CC(C)Oc1cc2nc(C3CCN(CC(=O)N4CCC(c5ccc(NC6CCC(=O)NC6=O)cc5)CC4)CC3)cn2cc1C(=O)Nc1ccc(F)cc1F` (stereo not shown) [Example 94, N-(2,4-difluorophenyl)-2-[1-[2-[4-[4-[(2,6-dioxo-3-piperidyl)amino]phenyl]-1-piperidyl]-2-oxo-ethyl]-4-piperidyl]-7-isopropoxy-imidazo[1,2-a]pyridine-6-carboxamide], which DC50 is on record?
**A.** 100 to 500 nM

**Q.** `CC(C)Oc1cc2nc(C3(C)CCN(CC(=O)N4CCC(c5ccc(NC6CCC(=O)NC6=O)cc5)CC4)CC3)cn2cc1C(=O)Nc1cccc(C(F)(F)F)n1` (stereo not shown) [Example 95, 2-[1-[2-[4-[4-[(2,6-dioxo-3-piperidyl)amino]phenyl]-1-piperidyl]-2-oxo-ethyl]-4-methyl-4-piperidyl]-7-isopropoxy-N-[6-(trifluoromethyl)-2-pyridyl]imidazo[1,2-a]pyridine-6-carboxamide] was tested. Which DC50 did it give?
**A.** 100 to 500 nM

**Q.** How did the DC50 turn out when `CC(C)Oc1cc2nc(C3CCN(CC(=O)N4CCC(c5cc(F)c(C6CCC(=O)NC6=O)cc5F)CC4)CC3)cn2cc1C(=O)Nc1cccc(C(F)F)n1` (stereo not shown) [Example 97, N-[6-(difluoromethyl)-2-pyridyl]-2-[1-[2-[4-[4-(2,6-dioxo-3-piperidyl)-2,5-difluoro-phenyl]-1-piperidyl]-2-oxo-ethyl]-4-piperidyl]-7-isopropoxy-imidazo[1,2-a]pyridine-6-carboxamide] was run?
**A.** 10 to 100 nM

**Q.** `CC(C)Oc1cc2nc(C3CCN(CC(=O)N4CCC(c5ccc(C6CCC(=O)NC6=O)cc5)CC4)CC3)cn2cc1C(=O)Nc1cccc(C(F)F)n1` (stereo not shown) [Example 99, N-[6-(difluoromethyl)-2-pyridyl]-2-[1-[2-[4-[4-(2,6-dioxo-3-piperidyl)phenyl]-1-piperidyl]-2-oxo-ethyl]-4-piperidyl]-7-isopropoxy-imidazo[1,2-a]pyridine-6-carboxamide] was tested. Which DC50 did it give?
**A.** 10 to 100 nM

**Q.** For `CC(C)Oc1cc2nc(C3CCN(CC(=O)N4CCC(c5cc(F)c(C6CCC(=O)NC6=O)cc5F)CC4)CC3)cn2cc1C(=O)Nc1cnn2cccnc12` (stereo not shown) [Example 100, 2-[1-[2-[4-[4-(2,6-dioxo-3-piperidyl)-2,5-difluoro-phenyl]-1-piperidyl]-2-oxo-ethyl]-4-piperidyl]-7-isopropoxy-N-pyrazolo[1,5-a]pyrimidin-3-yl-imidazo[1,2-a]pyridine-6-carboxamide], which DC50 is on record?
**A.** 10 to 100 nM

**Q.** Which DC50 does the source give for `CC(C)Oc1cc2nc(C3CCN(CC(=O)N4CCC(c5ccc(C6(F)CCC(=O)NC6=O)cc5)CC4)CC3)cn2cc1C(=O)Nc1cccc(C(F)F)n1` (stereo not shown) [Example 101, N-[6-(difluoromethyl)-2-pyridyl]-2-[1-[2-[4-[4-(3-fluoro-2,6-dioxo-3-piperidyl)phenyl]-1-piperidyl]-2-oxo-ethyl]-4-piperidyl]-7-isopropoxy-imidazo[1,2-a]pyridine-6-carboxamide] here?
**A.** 10 to 100 nM

**Q.** How did the DC50 turn out when `CC(C)Oc1cc2nc(C3CCN(CC(=O)N4CCC(c5ccc(C6(F)CCC(=O)NC6=O)cc5)CC4)CC3)cn2cc1C(=O)Nc1ccn(C)n1` (stereo not shown) [Example 102, 2-[1-[2-[4-[4-(3-fluoro-2,6-dioxo-3-piperidyl)phenyl]-1-piperidyl]-2-oxo-ethyl]-4-piperidyl]-7-isopropoxy-N-(1-methylpyrazol-3-yl)imidazo[1,2-a]pyridine-6-carboxamide] was run?
**A.** 10 to 100 nM

**Q.** With `CC(C)Oc1cc2nc(C3CCN(CC(=O)N4CCC(c5ccc(NC6CCC(=O)NC6=O)cc5)CC4)CC3)cn2cc1C(=O)Nc1cccc(C(F)(F)F)n1` (stereo not shown) [Example 103, 2-(1-(2-(4-(4-((2,6-dioxopiperidin-3-yl)amino)phenyl)piperidin-1-yl)-2-oxoethyl)piperidin-4-yl)-7-isopropoxy-N-(6-(trifluoromethyl)pyridin-2-yl)imidazo[1,2-a]pyridine-6-carboxamide] as the compound, how does the DC50 read?
**A.** 10 to 100 nM

**Q.** `CC(C)Oc1cc2nc(C3CCN(CC(=O)N4CCC(c5ccc(NC6CCC(=O)NC6=O)cc5)CC4)CC3)cn2cc1C(=O)Nc1cccc(C(F)(F)F)c1` (stereo not shown) [Example 106, 2-[1-[2-[4-[4-[(2,6-dioxo-3-piperidyl)amino]phenyl]-1-piperidyl]-2-oxo-ethyl]-4-piperidyl]-7-isopropoxy-N-[3-(trifluoromethyl)phenyl]imidazo[1,2-a]pyridine-6-carboxamide] was tested. Which DC50 did it give?
**A.** 100 to 500 nM

**Q.** How did the DC50 turn out when `CC(C)Oc1cc2nc(C3CCN(CC(=O)N4CCC(c5ccc(NC6CCC(=O)NC6=O)cc5)CC4)CC3)cn2cc1C(=O)Nc1ccccn1` (stereo not shown) [Example 109, 2-[1-[2-[4-[4-[(2,6-dioxo-3-piperidyl)amino]phenyl]-1-piperidyl]-2-oxo-ethyl]-4-piperidyl]-7-isopropoxy-N-(2-pyridyl)imidazo[1,2-a]pyridine-6-carboxamide] was run?
**A.** 10 to 100 nM

**Q.** With `CC(C)Oc1cc2nc(C3CCN(CC(=O)N4CC5(C4)CN(c4ccc(C6CCC(=O)NC6=O)cc4)C5)CC3)cn2cc1C(=O)Nc1cccc(C(F)F)n1` (stereo not shown) [Example 110, N-[6-(difluoromethyl)-2-pyridyl]-2-[1-[2-[6-[4-(2,6-dioxo-3-piperidyl)phenyl]-2,6-diazaspiro[3.3]heptan-2-yl]-2-oxo-ethyl]-4-piperidyl]-7-isopropoxy-imidazo[1,2-a]pyridine-6-carboxamide] as the compound, how does the DC50 read?
**A.** 10 to 100 nM

**Q.** With `CC(C)Oc1cc2nc(C3CCN(CC(F)=C4CCN(c5ccc(NC6CCC(=O)NC6=O)cc5)CC4)CC3)cn2cc1C(=O)Nc1cccc(C(F)F)n1` (stereo not shown) [Example 111, N-(6-(difluoromethyl)pyridin-2-yl)-2-(1-(2-(1-(4-((2,6-dioxopiperidin-3-yl)amino)phenyl)piperidin-4-ylidene)-2-fluoroethyl)piperidin-4-yl)-7-isopropoxyimidazo[1,2-a]pyridine-6-carboxamide] as the compound, how does the DC50 read?
**A.** 10 to 100 nM

**Q.** Which DC50 does the source give for `CC(C)Oc1cc2nc(C3CCN(CC(F)=C4CCN(c5ncc(C6CCC(=O)NC6=O)cc5F)CC4)CC3)cn2cc1C(=O)Nc1cccc(C(F)F)n1` (stereo not shown) [Example 112, N-[6-(difluoromethyl)-2-pyridyl]-2-[1-[2-[1-[5-(2,6-dioxo-3-piperidyl)-3-fluoro-2-pyridyl]-4-piperidylidene]-2-fluoro-ethyl]-4-piperidyl]-7-isopropoxy-imidazo[1,2-a]pyridine-6-carboxamide] here?
**A.** 10 to 100 nM

**Q.** `CC(C)Oc1cc2nn([C@H]3CC[C@H](CN4CC[C@H](c5ccc6c(N7CCC(=O)NC7=O)nn(C)c6c5)[C@H](O)C4)CC3)cc2cc1C(=O)Nc1cccn(C2C[C@H]2F)c1=O` (stereo partly drawn) [Example 116, 2-((1S,4S)-4-(((3S,4R)-4-(3-(2,4-dioxotetrahydropyrimidin-1(2H)-yl)-1-methyl-1H-indazol-6-yl)-3-hydroxypiperidin-1-yl)methyl)cyclohexyl)-N-(1-((1S,2R)-2-fluorocyclopropyl)-2-oxo-1,2-dihydropyridin-3-yl)-6-isopropoxy-2H-indazole-5-carboxamide] was tested. Which DC50 did it give?
**A.** < 10 nM

**Q.** With `CC(C)Oc1cc2nn([C@H]3CC[C@H](CN4CC5(CCN(c6ncc(C7CCC(=O)NC7=O)cc6F)CC5)C4)CC3)cc2cc1C(=O)Nc1cnn2cccnc12` (stereo partly shown) [Example 117, 2-((1r,4r)-4-((7-(5-(2,6-dioxopiperidin-3-yl)-3-fluoropyridin-2-yl)-2,7-diazaspiro[3.5]nonan-2-yl)methyl)cyclohexyl)-6-isopropoxy-N-(pyrazolo[1,5-a]pyrimidin-3-yl)-2H-indazole-5-carboxamide] as the compound, how does the DC50 read?
**A.** < 10 nM

**Q.** Which DC50 does the source give for `CC(C)Oc1cc2nn([C@H]3CC[C@H](CN4CCCC(c5ccc(OC6CCC(=O)NC6=O)cc5)C4)CC3)cc2cc1C(=O)Nc1cccn(C2CC2)c1=O` (stereo partly shown) [Example 118, N-(1-cyclopropyl-2-oxo-1,2-dihydropyridin-3-yl)-2-((1r,4r)-4-((3-(4-((2,6-dioxopiperidin-3-yl)oxy)phenyl)piperidin-1-yl)methyl)cyclohexyl)-6-isopropoxy-2H-indazole-5-carboxamide] here?
**A.** 10 to 100 nM

**Q.** For `CC(C)Oc1cc2nn([C@H]3CC[C@H](CN4CCN(c5ncc(C6CCC(=O)NC6=O)cc5F)CC(O)C4)CC3)cc2cc1C(=O)Nc1cccn([C@H]2C[C@H]2F)c1=O` (stereo partly drawn) [Example 119, 2-((1r,4S)-4-((4-(5-(2,6-dioxopiperidin-3-yl)-3-fluoropyridin-2-yl)-6-hydroxy-1,4-diazepan-1-yl)methyl)cyclohexyl)-N-(1-((1S,2R)-2-fluorocyclopropyl)-2-oxo-1,2-dihydropyridin-3-yl)-6-isopropoxy-2H-indazole-5-carboxamide], which DC50 is on record?
**A.** < 10 nM

**Q.** Which DC50 does the source give for `CC(C)Oc1cc2nn([C@H]3CC[C@H](CN4CC5(CCN(c6ncc(C7CCC(=O)NC7=O)cc6F)CC5)C4)CC3)cc2cc1C(=O)Nc1cccn(C2CC2)c1=O` (stereo partly shown) [Example 124, N-(1-cyclopropyl-2-oxo-1,2-dihydropyridin-3-yl)-2-((r,4r)-4-((7-(5-(2,6-dioxopiperidin-3-yl)-3-fluoropyridin-2-yl)-2,7-diazaspiro[3.5]nonan-2-yl)methyl)cyclohexyl)-6-isopropoxy-2H-indazole-5-carboxamide] here?
**A.** < 10 nM

**Q.** How did the DC50 turn out when `CC(C)Oc1cc2nn([C@H]3CC[C@H](CN4CC5(C4)CN(c4ncc(C6CCC(=O)NC6=O)cc4F)C5)CC3)cc2cc1C(=O)Nc1cccn([C@H]2C[C@H]2F)c1=O` (stereo partly drawn) [Example 126, 2-((1r,4S)-4-((6-(5-(2,6-dioxopiperidin-3-yl)-3-fluoropyridin-2-yl)-2,6-diazaspiro[3.3]heptan-2-yl)methyl)cyclohexyl)-N-(1-((1S,2R)-2-fluorocyclopropyl)-2-oxo-1,2-dihydropyridin-3-yl)-6-isopropoxy-2H-indazole-5-carboxamide] was run?
**A.** < 10 nM
